In ChEMBL document CHEMBL3994563 (Medchemcomm, 2016):
The source made the active and inactive calls. No cut-off for these calls is given here.

What was measured:
A549 = assay: Antiproliferative activity against human A549 cells after 48 hrs by MTT assay; type: functional, cell-based; details: A549, 48 h
MIA PaCa-2 [1] = assay: Antiproliferative activity against human MIAPaCa2 cells after 48 hrs by MTT assay; type: functional, cell-based; details: MIA PaCa-2, 48 h
PC-3 = assay: Antiproliferative activity against human PC3 cells after 48 hrs by MTT assay; type: functional, cell-based; details: PC-3, 48 h
Caco-2 = assay: Antiproliferative activity against human Caco2 cells after 48 hrs by MTT assay; type: functional, cell-based; details: Caco-2, 48 h
A-375 [2] = assay: Antiproliferative activity against human A375 cells after 48 hrs by MTT assay; type: functional, cell-based; details: A-375, 48 h
[3] = Antiproliferative activity against human HPDEC after 48 hrs by MTT assay; type: cell-based
A-375 [4] = assay: Antiproliferative activity against human A375 cells assessed as reduction in colony formation measured after 10 to 14 days by crystal violet staining based microscopic method; type: functional, cell-based
A-375 [5] = assay: Cell cycle arrest in human A375 cells assessed as accumulation at G2/M phase at IC50 after 48 hrs by propidium iodide staining based flow cytometry; type: functional
MIA PaCa-2 [6] = assay: Cell cycle arrest in human MIAPaCa2 cells assessed as accumulation at G2/M phase at IC50 after 48 hrs by propidium iodide staining based flow cytometry; type: functional
MIA PaCa-2 [7] = assay: Cell cycle arrest in human MIAPaCa2 cells assessed as accumulation at sub-G0/G1 phase at IC50 after 48 hrs by propidium iodide staining based flow cytometry; type: functional
A-375 [8] = assay: Cell cycle arrest in human A375 cells assessed as accumulation at sub-G0/G1 phase at IC50 after 48 hrs by propidium iodide staining based flow cytometry; type: functional
MIA PaCa-2 [9] = assay: Antiproliferative activity against human MIAPaCa2 cells assessed as reduction in colony formation measured after 10 to 14 days by crystal violet staining based microscopic method; type: functional, cell-based
A-375 [10] = assay: Antiproliferative activity against human A375 cells assessed as reduction in cell viability at IC50 after 24 hrs by calcein AM staining based confocal microscopy; type: functional
MIA PaCa-2 [11] = assay: Antiproliferative activity against human MIAPaCa2 cells assessed as reduction in cell viability at IC50 after 24 hrs by calcein AM staining based confocal microscopy; type: functional
MIA PaCa-2 [12] = assay: Cell cycle arrest in human MIAPaCa2 cells assessed as decrease in G1 population at IC50 after 48 hrs by propidium iodide staining based flow cytometry; type: functional
A-375 [13] = assay: Cell cycle arrest in human A375 cells assessed as decrease in G1 population at IC50 after 48 hrs by propidium iodide staining based flow cytometry; type: functional

Row | SMILES | IC50 (A549) | IC50 (MIA PaCa-2 [1]) | IC50 (PC-3) | IC50 (Caco-2) | IC50 (A-375 [2]) | IC50 [3] | Activity (A-375 [4]) | Activity (A-375 [5]) | Activity (MIA PaCa-2 [6]) | Activity (MIA PaCa-2 [7]) | Activity (A-375 [8]) | Activity (MIA PaCa-2 [9]) | Activity (A-375 [10]) | Activity (MIA PaCa-2 [11]) | Activity (MIA PaCa-2 [12]) | Activity (A-375 [13])
1 | Cc1ccc(C#Cc2sc(C)c(C)c2C(=O)c2ccc(C)cc2)cc1 | 45.3 µM | > 100 µM | > 100 µM | > 100 µM | > 100 µM |  |  |  |  |  |  |  |  |  |  | 
2 | Cc1ccc(C#Cc2sc3c(c2C(=O)c2ccccc2)CCCC3)cc1 | > 100 µM | > 100 µM | > 100 µM | > 100 µM | > 100 µM |  |  |  |  |  |  |  |  |  |  | 
3 | COc1ccc(C(=O)c2c(C#Cc3ccccc3)sc3c2CCCC3)cc1 | 8.14 µM | 35.2 µM | 14.5 µM | 16.8 µM | 1.9 µM | 35.6 µM |  |  |  |  |  |  |  |  |  | 
4 | CC(=O)O[C@H]1C(=O)[C@@]2(C)[C@H]([C@H](OC(=O)c3ccccc3)[C@]3(O)C[C@H](OC(=O)[C@H](O)[C@@H](NC(=O)c4ccccc4)c4ccccc4)C(C)=C1C3(C)C)[C@]1(OC(C)=O)CO[C@@H]1C[C@@H]2O [PACLITAXEL] | 0.4 µM | 2.5 µM | 1.9 µM | 2.8 µM | 0.68 µM |  |  |  |  |  |  |  |  |  |  | 
5 | COc1ccc(C(=O)c2c(-c3ccccc3)sc3c2CCCC3)cc1 | 9.42 µM | 8.84 µM | 23.4 µM | 18.6 µM | 5.34 µM | 21.4 µM |  |  |  |  |  |  |  |  |  | 
6 | O=C(c1ccccc1)c1c(-c2ccccc2)sc2c1CCCC2 | 14 µM | 18.2 µM | 23.8 µM | 20.4 µM | 16.3 µM |  |  |  |  |  |  |  |  |  |  | 
7 | Cc1sc(C#Cc2ccccc2)c(C(=O)c2ccccc2)c1C | 24 µM | 31.2 µM | 31.5 µM | 34.2 µM | 28 µM |  |  |  |  |  |  |  |  |  |  | 
8 | O=C(c1ccccc1)c1c(C#Cc2ccccc2)sc2c1CCCC2 | 20.2 µM | 8.48 µM | 23.1 µM | 14.8 µM | 4.63 µM | 18.9 µM |  |  |  |  |  |  |  |  |  | 
9 | Cc1ccc(C(=O)c2c(-c3ccccc3)sc3c2CCCCC3)cc1 | 6.28 µM | 24.6 µM | 23.4 µM | 15.7 µM | 3.71 µM | 25.8 µM |  |  |  |  |  |  |  |  |  | 
10 | O=C(c1ccccc1)c1c(-c2ccccc2)sc2c1CCCCC2 | 15.8 µM | 12 µM | 22.1 µM | 18.1 µM | 7.72 µM | 14.6 µM |  |  |  |  |  |  |  |  |  | 
11 | COc1cc(C(=O)c2c(C#Cc3ccccc3)sc(C)c2C)cc(OC)c1OC | 6.51 µM | 4.32 µM | 6.49 µM | 7.49 µM | 1.17 µM | 36.1 µM |  |  |  |  |  |  |  |  |  | 
12 | Cc1ccc(C#Cc2sc3c(c2C(=O)c2ccc(C)cc2)CCCC3)cc1 | 27.3 µM | 42 µM | 48.2 µM | 31.5 µM | 30.7 µM |  |  |  |  |  |  |  |  |  |  | 
13 | Cc1ccc(C(=O)c2c(C#Cc3ccccc3)sc3c2CCCC3)cc1 | 11.3 µM | 17.2 µM | 20.4 µM | 10.4 µM | 10.1 µM |  |  |  |  |  |  |  |  |  |  | 
14 | Cc1ccc(C#Cc2sc3c(c2C(=O)c2ccc([N+](=O)[O-])cc2)CCCC3)cc1 | 30.1 µM | 16.4 µM | 21.4 µM | 34.2 µM | 13.1 µM |  |  |  |  |  |  |  |  |  |  | 
15 | COc1cc(C(=O)c2c(C#Cc3ccccc3)sc3c2CCCC3)cc(OC)c1OC | 12.9 µM | 5.08 µM | 15.5 µM | 8.26 µM | 3.88 µM | > 50 µM |  |  |  |  |  |  |  |  |  | 
16 | Cc1ccc(C#Cc2sc(C)c(C)c2C(=O)c2ccccc2)cc1 | > 100 µM | 69.8 µM | 51.4 µM | > 100 µM | > 100 µM |  |  |  |  |  |  |  |  |  |  | 
17 | COc1cc(C(=O)c2c(C#Cc3ccc(C)cc3)sc3c2CCCC3)cc(OC)c1OC | 18.9 µM | 21.2 µM | 37.5 µM | 28.3 µM | 22.5 µM |  |  |  |  |  |  |  |  |  |  | 

Further lines, with some results ahead:

Row | IC50 (A549) | IC50 (MIA PaCa-2 [1]) | IC50 (PC-3) | IC50 (Caco-2) | IC50 (A-375 [2]) | SMILES | IC50 [3] | Activity (A-375 [4]) | Activity (A-375 [5]) | Activity (MIA PaCa-2 [6]) | Activity (MIA PaCa-2 [7]) | Activity (A-375 [8]) | Activity (MIA PaCa-2 [9]) | Activity (A-375 [10]) | Activity (MIA PaCa-2 [11]) | Activity (MIA PaCa-2 [12]) | Activity (A-375 [13])
18 | 13.6 µM | 29.4 µM | 21.4 µM | 18.3 µM | 9.35 µM | COc1ccc(C(=O)c2c(C#Cc3ccccc3)sc(C)c2C)cc1 |  |  |  |  |  |  |  |  |  |  | 
19 | 19 µM | 21.9 µM | 33.4 µM | 25.1 µM | 21.2 µM | Cc1sc(C#Cc2ccccc2)c(C(=O)c2ccc([N+](=O)[O-])cc2)c1C |  |  |  |  |  |  |  |  |  |  | 
20 | 21.9 µM | > 100 µM | 39.5 µM | 38 µM | 31.1 µM | Cc1sc(-c2ccccc2)c(C(=O)c2ccccc2)c1C |  |  |  |  |  |  |  |  |  |  | 
21 | 31 µM | 23.7 µM | > 100 µM | 64.7 µM | > 100 µM | Cc1sc(-c2ccccc2)c(C(=O)c2ccc([N+](=O)[O-])cc2)c1C |  |  |  |  |  |  |  |  |  |  | 
22 | 24.2 µM | 13.2 µM | 14.6 µM | 28.1 µM | 20.5 µM | O=C(c1ccc([N+](=O)[O-])cc1)c1c(-c2ccccc2)sc2c1CCCC2 |  |  |  |  |  |  |  |  |  |  | 
23 | 39.5 µM | > 100 µM | 25.4 µM | > 100 µM | 43.2 µM | Cc1ccc(C(=O)c2c(C#Cc3ccccc3)sc(C)c2C)cc1 |  |  |  |  |  |  |  |  |  |  | 
24 | > 100 µM | > 100 µM | 26 µM | > 100 µM | 51.2 µM | Cc1ccc(C(=O)c2c(-c3ccccc3)sc(C)c2C)cc1 |  |  |  |  |  |  |  |  |  |  | 
25 | > 100 µM | 79 µM | 40.6 µM | 31.4 µM | 26.4 µM | Cc1ccc(C#Cc2sc(C)c(C)c2C(=O)c2ccc([N+](=O)[O-])cc2)cc1 |  |  |  |  |  |  |  |  |  |  | 
26 | 2.8 µM | 3 µM | 12.3 µM | 4.52 µM | 0.81 µM | O=C(c1ccc([N+](=O)[O-])cc1)c1c(C#Cc2ccccc2)sc2c1CCCC2 | > 50 µM | Active | Active | Active | Active | Active | Active | Active | Active | Active | Active
27 | 32.7 µM | 36.4 µM | 37.5 µM | 47.6 µM | 27 µM | Cc1ccc(C(=O)c2c(-c3ccccc3)sc3c2CCCC3)cc1 |  |  |  |  |  |  |  |  |  |  | 
28 | 5.39 µM | 5.35 µM | 40.1 µM | 6.1 µM | 1.07 µM | O=C(c1ccc([N+](=O)[O-])cc1)c1c(-c2ccccc2)sc2c1CCCCC2 | > 50 µM | Active | Active | Active | Active | Active | Active | Active | Active | Active | Active
